Test results taken from patent US4613602A, “Ranitidine derivative useful in the treatment of ulcer” (Magis Farmaceutici s.r.l., priority 1984, dated 1986).

Tests used:
gastric secretion = test: Therapeutical activity, overall statement; conditions: in vivo
H2-receptors = molecular target: T1, H2-receptors (Rattus norvegicus, UniProt P25102); test: Antagonism to histamine in isolated uterus of female rat under estrus; conditions: for Relaxation with histamine 10^-2 g/l, after the administration / Relaxation with histamine 10^-2 g/l, Δ: basal value 11.5
T1 construct: functional antagonism of histamine-induced relaxation
T1 sequence (P25102 whole entry): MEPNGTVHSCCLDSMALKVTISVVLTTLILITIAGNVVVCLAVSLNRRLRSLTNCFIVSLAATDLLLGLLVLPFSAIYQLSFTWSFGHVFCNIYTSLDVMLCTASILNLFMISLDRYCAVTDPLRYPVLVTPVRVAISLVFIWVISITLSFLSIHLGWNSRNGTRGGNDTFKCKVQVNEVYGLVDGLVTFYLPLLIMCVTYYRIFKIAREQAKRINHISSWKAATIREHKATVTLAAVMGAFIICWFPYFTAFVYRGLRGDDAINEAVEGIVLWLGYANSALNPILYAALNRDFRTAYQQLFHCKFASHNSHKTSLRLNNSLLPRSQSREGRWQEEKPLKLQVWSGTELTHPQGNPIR

mice and rats = test: Acute toxicity, overall comparison (mouse and rat); assay type: in vivo; conditions: whole of the data of Table 1
Description: (§1) The characteristics of high activity and of practical absence of side effects have been evaluated by studying the acute toxicity, the activity on indomethacin-induced ulcers, on gastric secretion, on histamine-inducedgastric hyperacidity, and on H2 --receptors of isolated uterus of guinea pig.
(§2) The acute toxicity has been studied on male and female mice of Swiss strain, and on albino male and female rats of Wistar strain, by administering the active principle by the oral way, by intravenous way, and by intramuscular way.
(§3) For each administering way envisaged, doses in geometrical progression have been tested.
(§4) At the end of the observation time period of 14 days, the LD50 and the related fiducial limits have been computated according to the method by Licthfield and Wilcoxon [Pharmacol. Exp. Theor., 118, 96-99 (1949)].

[1] = Acute toxicity (LD50) in rat, Lichtfield and Wilcoxon; conditions: in vivo, 14 days observation, read-out: DL50
Description: as §1, §2, §3, §4

[2] = Acute toxicity (LD50) in mouse, Lichtfield and Wilcoxon; conditions: in vivo, 14 days observation
Description: as §1, §2, §3, §4

[3] = test system: indomethacin-induced ulcers; test: Anti-ulcer activity, indomethacin-induced ulcers in rat; assay type: in vivo; conditions: 25 mg/kg p.o.; for Inhibition percentage (ulcer): relative to control; for mm of ulcer: control 18.4
Description: This activity has been evaluated by using the method of indomethacin-induced ulcers in rat [Bhargava, K. P., Gupta M. B. and Tangri, K. K.: European J. of Pharmacology, 22, 191-195 (1973)].
The product has been administered as dissolved in carboxymethylcellulose at 0.2% and Tween 80 at 1% concentration.

[4] = test system: gastric secretion induced by histamine; test: Anti-H2 activity, gastric secretion in rats in vivo induced by histamine; design: species or system rat; conditions: 50 mg/kg i.p.; for pH variation from the beginning of the treatment / Area: mean ± ES; for Area: control 184.93, *p ≤ 0.01, **p ≤ 0.01
Protocol: Anti-H2 activity. Gastric secretion in rats in vivo induced by histamine. The anti-secretory activity has been studied by the method by Gosh, M. N., Schild, M. O. [Brit. J. Pharmacol., 13, 54 (1958)]. | Antihistaminic anti-H2 activity, gastric secretion in rats, in vivo, | induced by histamine. | Histamine perfused into vein 200 μg/kg/min at the flow rate of 0.1 | ml/min. | Perfusion of stomach with 0.00025 N NaOH at the flow rate of 1 | ml/min.

[5] = im, intramuscular administering
[6] = im, intramuscular administering, read-out: DL50
[7] = intravenous administering, read-out: DL50
[8] = oral administering, read-out: DL50 (95 fiducial limits)

SMILES: CN(C)Cc1ccc(CSCCNC(=C[N+](=O)[O-])N2CCN(C)CC2)o1 [Methylpiperazino-ranitidine, 1-N-[2-[[5-[(dimethylamino)-methyl]-furfuryl]-thio]-ethyl]-amino-1-[4-methylpiperazino]-2-nitroethene]
- therapeutical activity compared with ranitidine (gastric secretion): practically overlapping to that of ranitidine
- Relaxation with histamine 10^-2 g/l, after the administration (H2-receptors; 6.75 × 10^-3 g/l, N° 5): 2.5
- Relaxation with histamine 10^-2 g/l, Δ (H2-receptors; 6.75 × 10^-3 g/l, N° 5): 9
- inhibition at 6.75 µg/mL (H2-receptors; rat, 6.75 × 10^-3 g/l, N° 5, read-out: Inhibition percentage (relaxation with histamine 10^-2 g/l)): 78.2%
- toxicity compared with ranitidine (mice and rats): constantly results less toxic than ranitidine
- LD50 at 336 h [1, 5]: 2000 mg/kg
- LD50 at 336 h ([1]; intravenous administering): 110 mg/kg
- LD50 at 336 h ([1]; oral administering): 5500 mg/kg
- LD50 at 336 h [2, 6]: 300 mg/kg
- LD50 at 336 h [2, 7]: 120 mg/kg
- LD50 at 336 h [2, 8]: 2610 mg/kg
- anti-ulcer activity compared with ranitidine [3]: same anti-ulcer activity as ranitidine
- Inhibition percentage (ulcer) [3]: 85.9 percentage
- mm of ulcer [3]: 2.6 mm
- pH variation from the beginning of the treatment ([4]; 0 min): 8.68 pH
- % Δ (percent increase of area relatively to the control) [4]: 32.84%
- action prolonged in time, pH value from the 35th to the 60th minute [4]: from the 35th to the 60th minute the pH value remains nearly constant
- Area [4]: 245.67 mm^2
- pH variation from the beginning of the treatment ([4]; 5 min): 7.21 pH
- pH variation from the beginning of the treatment ([4]; 10 min): 5.85 pH
- pH variation from the beginning of the treatment ([4]; 15 min): 4.62 pH
- pH variation from the beginning of the treatment ([4]; 20 min): 4.43 pH
- pH variation from the beginning of the treatment ([4]; 25 min): 4.39 pH
- pH variation from the beginning of the treatment ([4]; 30 min): 4.27 pH
- pH variation from the beginning of the treatment ([4]; 35 min): 4.06 pH
- pH variation from the beginning of the treatment ([4]; 40 min): 4.05 pH
- pH variation from the beginning of the treatment ([4]; 45 min): 3.97 pH
- pH variation from the beginning of the treatment ([4]; 50 min): 3.92 pH
- pH variation from the beginning of the treatment ([4]; 55 min): 3.99 pH
- pH variation from the beginning of the treatment ([4]; 60 min): 3.95 pH

SMILES: CNC(=C[N+](=O)[O-])NCCSCc1ccc(CN(C)C)o1 [Ranitidine, ranitidine]
- Relaxation with histamine 10^-2 g/l, after the administration (H2-receptors; 5 × 10^-3 g/l, N° 5): 3
- Relaxation with histamine 10^-2 g/l, Δ (H2-receptors; 5 × 10^-3 g/l, N° 5): 8.5
- inhibition at 5 µg/mL (H2-receptors; rat, read-out: Inhibition percentage (relaxation with histamine 10^-2 g/l)): 73.9%
- LD50 at 336 h [1, 5]: 2020 mg/kg
- LD50 at 336 h ([1]; intravenous administering): 93 mg/kg
- LD50 at 336 h ([1]; oral administering): > 5000 mg/kg
- LD50 at 336 h [2, 6]: 280 mg/kg
- LD50 at 336 h [2, 7]: 80 mg/kg
- LD50 at 336 h [2, 8]: 1700 mg/kg
- Inhibition percentage (ulcer) [3]: 84.2 percentage
- mm of ulcer [3]: 2.9 mm
- pH variation from the beginning of the treatment ([4]; 0 min): 8.80 pH
- % Δ (percent increase of area relatively to the control) [4]: 45.47%
- Area [4]: 269.02 mm^2
- pH variation from the beginning of the treatment ([4]; 5 min): 6.12 pH
- pH variation from the beginning of the treatment ([4]; 10 min): 4.06 pH
- pH variation from the beginning of the treatment ([4]; 15 min): 4.06 pH
- pH variation from the beginning of the treatment ([4]; 20 min): 4.28 pH
- pH variation from the beginning of the treatment ([4]; 25 min): 4.48 pH
- pH variation from the beginning of the treatment ([4]; 30 min): 4.67 pH
- pH variation from the beginning of the treatment ([4]; 35 min): 4.89 pH
- pH variation from the beginning of the treatment ([4]; 40 min): 5.16 pH
- pH variation from the beginning of the treatment ([4]; 45 min): 5.33 pH
- pH variation from the beginning of the treatment ([4]; 50 min): 5.40 pH
- pH variation from the beginning of the treatment ([4]; 55 min): 5.57 pH
- pH variation from the beginning of the treatment ([4]; 60 min): 5.69 pH
